Data reported in patent US9901592B2 (priority 2008, dated 2018).
Values after ≈ are worked out from the molar mass of the structure shown. Where two headings read alike, the source gives them in different places.

Tests used:
S. pneumoniae [1] = test: microbe, parasite or virus in culture; format: cell-based; conditions: for MIC: Streptococcus pneumoniae
S. pneumoniae [2] = format: cell-based
M. catarrhalis = test: microbe, parasite or virus in culture; format: cell-based; conditions: Moraxella catarrhalis
pneumococci = test: microbe, parasite or virus in culture; format: cell-based, S. pneumoniae; conditions: Streptococcus pneumoniae

CCC[C@@H]1C[C@@H](C(=O)N[C@@H]([C@H]2O[C@H](SC)[C@H](O)[C@@H](O)[C@H]2O)[C@H](C)Cl)N(C)C1 [CLN, clindamycin]
strains with resistant clones / strains tested (S. pneumoniae [1]; S. pneumoniae): 2/5 | MIC (S. pneumoniae [1]; read-out: Initial MIC, strain 24 Macrolide-R [erm(B)], parent): > 64 µg/mL | MIC (S. pneumoniae [1]; read-out: Initial MIC, strain 1076 Macrolide-R [erm(B)&mef(A)], parent): 64 µg/mL (≈ 151 µM) | MIC (S. pneumoniae [1]; read-out: Initial MIC, strain 1077 Macrolide-S, parent): 0.016 µg/mL (≈ 0.0376 µM) | MIC (S. pneumoniae [1]; read-out: Initial MIC, strain 1635 Macrolide-R [erm(A)], parent): 0.06 µg/mL (≈ 0.141 µM) | MIC (S. pneumoniae [1]; read-out: Initial MIC, strain 2686 Macrolide-R [L4 mutation], parent): 0.03 µg/mL (≈ 0.0706 µM) | MIC (S. pneumoniae [1]; read-out: Initial MIC, strain 3009 Macrolide-R [23SrRNA mutation], parent): 1 µg/mL (≈ 2.35 µM) | MIC (S. pneumoniae [1]; read-out: Initial MIC, strain 3665 Macrolide-R [mef(A)], parent): 0.016 µg/mL (≈ 0.0376 µM) | MIC (S. pneumoniae [1]; read-out: Initial MIC, strain 7127 Macrolide-S [S20N in L4, A105V in L22], parent): 0.03 µg/mL (≈ 0.0706 µM) | MIC (S. pneumoniae [1]; read-out: MIC of parents of resistant clones, S. pneumoniae (CEM-101: 7 strains)): 0.03 to 0.06 µg/mL | MIC (S. pneumoniae [1]; read-out: Parental MICs, S. pneumoniae, 8 strains with varying resistotypes): 0.016 to 1 µg/mL (≈ 0.0376 to 2.35 µM) | MIC (S. pneumoniae [1]; read-out: Selected Resistance MIC, strain 1077 Macrolide-S, after serial passages in the drug): 4 µg/mL (≈ 9.41 µM) | MIC (S. pneumoniae [1]; read-out: Selected Resistance MIC, strain 1635 Macrolide-R [erm(A)], after serial passages in the drug): > 64 µg/mL | MIC (S. pneumoniae [1]; read-out: Selected Resistance MIC, strain 2686 Macrolide-R [L4 mutation], after serial passages in the drug): 0.125 µg/mL (≈ 0.294 µM) | MIC (S. pneumoniae [1]; read-out: Selected Resistance MIC, strain 3009 Macrolide-R [23SrRNA mutation], after serial passages in the drug): 2 µg/mL (≈ 4.71 µM) | MIC (S. pneumoniae [1]; read-out: Selected Resistance MIC, strain 3665 Macrolide-R [mef(A)], after serial passages in the drug): 0.03 µg/mL (≈ 0.0706 µM) | Retest MIC after 10 Antibiotic-free Subcultures (S. pneumoniae [1]; strain 24 Macrolide-R [erm(B)], clone selected with CEM-101): >64 µg/mL | Retest MIC after 10 Antibiotic-free Subcultures (S. pneumoniae [1]; strain 24 Macrolide-R [erm(B)], clone selected with TEL): >64 µg/mL | Retest MIC after 10 Antibiotic-free Subcultures (S. pneumoniae [1]; strain 1076 Macrolide-R [erm(B)&mef(A)], clone selected with CEM-101): >64 µg/mL | Retest MIC after 10 Antibiotic-free Subcultures (S. pneumoniae [1]; strain 1076 Macrolide-R [erm(B)&mef(A)], clone selected with TEL): >64 µg/mL | Retest MIC after 10 Antibiotic-free Subcultures (S. pneumoniae [1]; strain 1077 Macrolide-S, clone selected with AZI): 4 µg/mL | Retest MIC after 10 Antibiotic-free Subcultures (S. pneumoniae [1]; strain 1077 Macrolide-S, clone selected with CEM-101): 0.03 µg/mL | Retest MIC after 10 Antibiotic-free Subcultures (S. pneumoniae [1]; strain 1077 Macrolide-S, clone selected with CLN): 8 µg/mL | Retest MIC after 10 Antibiotic-free Subcultures (S. pneumoniae [1]; strain 1077 Macrolide-S, clone selected with TEL): 8 µg/mL | Retest MIC after 10 Antibiotic-free Subcultures (S. pneumoniae [1]; strain 1635 Macrolide-R [erm(A)], clone selected with AZI): 0.03 µg/mL | Retest MIC after 10 Antibiotic-free Subcultures (S. pneumoniae [1]; strain 1635 Macrolide-R [erm(A)], clone selected with CEM-101): 0.03 µg/mL | Retest MIC after 10 Antibiotic-free Subcultures (S. pneumoniae [1]; strain 1635 Macrolide-R [erm(A)], clone selected with CLN): >64 µg/mL | Retest MIC after 10 Antibiotic-free Subcultures (S. pneumoniae [1]; strain 1635 Macrolide-R [erm(A)], clone selected with CLR): 0.25 µg/mL | Retest MIC after 10 Antibiotic-free Subcultures (S. pneumoniae [1]; strain 2686 Macrolide-R [L4 mutation], clone selected with CEM-101): 0.03 µg/mL | Retest MIC after 10 Antibiotic-free Subcultures (S. pneumoniae [1]; strain 2686 Macrolide-R [L4 mutation], clone selected with CLR): 0.03 µg/mL | Retest MIC after 10 Antibiotic-free Subcultures (S. pneumoniae [1]; strain 2686 Macrolide-R [L4 mutation], clone selected with TEL): 0.03 µg/mL | Retest MIC after 10 Antibiotic-free Subcultures (S. pneumoniae [1]; strain 3009 Macrolide-R [23SrRNA mutation], clone selected with CEM-101): 1 µg/mL | Retest MIC after 10 Antibiotic-free Subcultures (S. pneumoniae [1]; strain 3009 Macrolide-R [23SrRNA mutation], clone selected with CLR): 1 µg/mL | Retest MIC after 10 Antibiotic-free Subcultures (S. pneumoniae [1]; strain 3665 Macrolide-R [mef(A)], clone selected with CEM-101): 0.03 µg/mL | Retest MIC after 10 Antibiotic-free Subcultures (S. pneumoniae [1]; strain 3665 Macrolide-R [mef(A)], clone selected with CLR): 0.03 µg/mL | Retest MIC after 10 Antibiotic-free Subcultures (S. pneumoniae [1]; strain 3665 Macrolide-R [mef(A)], clone selected with TEL): 0.03 µg/mL | Retest MIC after 10 Antibiotic-free Subcultures (S. pneumoniae [1]; strain 7127 Macrolide-S [S20N in L4, A105V in L22], clone selected with AZI): 0.06 µg/mL | Retest MIC after 10 Antibiotic-free Subcultures (S. pneumoniae [1]; strain 7127 Macrolide-S [S20N in L4, A105V in L22], clone selected with CEM-101): 0.03 µg/mL | Retest MIC after 10 Antibiotic-free Subcultures (S. pneumoniae [1]; strain 7127 Macrolide-S [S20N in L4, A105V in L22], clone selected with CLN): 0.25 µg/mL | Retest MIC after 10 Antibiotic-free Subcultures (S. pneumoniae [1]; strain 7127 Macrolide-S [S20N in L4, A105V in L22], clone selected with CLR): 1 µg/mL | Retest MIC after 10 Antibiotic-free Subcultures (S. pneumoniae [1]; strain 7127 Macrolide-S [S20N in L4, A105V in L22], clone selected with TEL): 0.03 µg/mL | single step mutation frequency (S. pneumoniae [2]; strain 1077 Macrolide-S, 2 × MIC): <3.8 × 10^−10 | single step mutation frequency (S. pneumoniae [2]; strain 1077 Macrolide-S, 4 × MIC): <3.8 × 10^−10 | single step mutation frequency (S. pneumoniae [2]; strain 1077 Macrolide-S, 8 × MIC): <3.8 × 10^−10 | single step mutation frequency (S. pneumoniae [2]; strain 1635 Macrolide-R [erm(A)], 2 × MIC): 7.3 × 10^−7 | single step mutation frequency (S. pneumoniae [2]; strain 1635 Macrolide-R [erm(A)], 4 × MIC): 5.5 × 10^−7 | single step mutation frequency (S. pneumoniae [2]; strain 1635 Macrolide-R [erm(A)], 8 × MIC): 5.6 × 10^−7 | single step mutation frequency (S. pneumoniae [2]; strain 2686 Macrolide-R [L4 mutation], 2 × MIC): <1.2 × 10^−9 | single step mutation frequency (S. pneumoniae [2]; strain 2686 Macrolide-R [L4 mutation], 4 × MIC): <1.2 × 10^−9 | single step mutation frequency (S. pneumoniae [2]; strain 2686 Macrolide-R [L4 mutation], 8 × MIC): <1.2 × 10^−9 | single step mutation frequency (S. pneumoniae [2]; strain 3009 Macrolide-R [23S rRNA mutation], 2 × MIC): 1.7 × 10^−4 | single step mutation frequency (S. pneumoniae [2]; strain 3009 Macrolide-R [23S rRNA mutation], 4 × MIC): 7.3 × 10^−9 | single step mutation frequency (S. pneumoniae [2]; strain 3009 Macrolide-R [23S rRNA mutation], 8 × MIC): <1.2 × 10^−10 | single step mutation frequency (S. pneumoniae [2]; strain 3665 Macrolide-R [mef(A)], 2 × MIC): <2.4 × 10^−10 | single step mutation frequency (S. pneumoniae [2]; strain 3665 Macrolide-R [mef(A)], 4 × MIC): <2.4 × 10^−10 | single step mutation frequency (S. pneumoniae [2]; strain 3665 Macrolide-R [mef(A)], 8 × MIC): <2.4 × 10^−10 | single step mutation frequency (S. pneumoniae [2]; strain 7127 Macrolide-S [S20N in L4, A105V in L22], 2 × MIC): <2.9 × 10^−8 | single step mutation frequency (S. pneumoniae [2]; strain 7127 Macrolide-S [S20N in L4, A105V in L22], 4 × MIC): <2.9 × 10^−8 | single step mutation frequency (S. pneumoniae [2]; strain 7127 Macrolide-S [S20N in L4, A105V in L22], 8 × MIC): <2.9 × 10^−8 | MIC90 (M. catarrhalis): 2 µg/mL (≈ 4.71 µM) | MIC50 (pneumococci; pneumococci, L4 mutations (27)): 0.06 µg/mL (≈ 0.141 µM) | MIC90 (pneumococci; pneumococci, L4 mutations (27)): 0.125 µg/mL (≈ 0.294 µM) | MIC (pneumococci; read-out: MIC range, pneumococci, L4 mutations (27)): 0.03 to 0.125 µg/mL (≈ 0.0706 to 0.294 µM)
